Reference: patent US20120190564A1, “IDENTIFICATION OF PROTEIN BINDING SITES” (priority 2000, published 2012)
Ends that are not written are not given here. * marks the point of attachment. code + = amino-terminal bromo-group; nBu = CCCC*

System: anti-hTNF mAb 210
Assay: Loop-loop 15-mer Matrix-scan of hTNF loop-peptides with mAb 210
Type: binding
Conditions: mAb 210 10 ug/ml
From the text: FIG. 11: Partial listing of peptides synthesized for loop-loop 15-mer Matrix-scan (1. +AVRSSSRTPSDKPVZ (SEQ ID NO: 3); 2. +VRSSSRTPSDKPVAZ (SEQ ID NO: 4); 3. +RSSSRTPSDKPVAHZ (SEQ ID NO: 5); 4. +SSSRTPSDKPVAHVZ (SEQ ID NO: 6); 5. +SSRTPSDKPVAHVVZ (SEQ ID NO: 7); 145. +FAESGQVYFGIIALZ (SEQ ID NO: 8)). All overlapping 15-mer loop-peptides covering the linear sequence of human tumor necrosis factor (hTNF) were synthesized, i.e., 145 hTNF loop-peptides in total. Z is a Cys-butyl. The amino terminus of all peptides contain a bromo-group (+).
FIG. 12: Configuration of the loop-loop 15-mer Matrix-scan. Schematic representation of matrix-scan with two loop segments. On the polymer surface, a mixture of cys (mmt) and cys (trt) are coupled. After 1% TFA, the cys (mmt) is deprotected. Then, in each square, one peptide is coupled via its N-terminal Bromo-group (+). Thus, peptide-1 in square-1, peptide-2 in square-2, etc., until peptide-145 in square-145. Then, the cys(trt) is deprotected with 95% TFA. Then, in each square, 145 different peptides are spotted simultaneously. Thus, peptide-1 to 145 in square-1, peptide 1-145 in square-2, etc., to peptide-1 to peptide-145 in square-145. Some extra squares were used for controls (linear epitopes).
FIG. 13: Result of the loop-loop 15-mer Matrix-scan with anti-hTNF mAb 210 (10 ug/ml). The result obtained with all 145 squares is plotted. […] On top of these and other squares spots are labeled as well (spots represent first peptide coupled next to second loop peptide). Identified squares and spots: Sq-65: +FKGQGCPSTHVLLTZ (SEQ ID NO: 9); Sq-66: +KGQGCPSTHVLLTHZ (SEQ ID NO: 10); Sq-67: +GQGCPSTHVLLTHTZ (SEQ ID NO: 11); Sq-87: +SYQTKVNLLSAIKSZ (SEQ ID NO: 12); Sq-88: +YQTKVNLLSAIKSPZ (SEQ ID NO: 13); Sq-94: +LLSAIKSPCQRETPZ (SEQ ID NO: 14); Sq-95: +LSAIKSPCQRETPEZ (SEQ ID NO: 15); Sq-127: +LEKGDRLSAEINRPZ (SEQ ID NO: 16); Sq-128: +EKGDRLSAEINRPDZ (SEQ ID NO: 17); Peptide-65: +FKGQGCPSTHVLLTZ (SEQ ID NO: 18); Peptide-70: +CPSTHVLLTHTISRZ (SEQ ID NO: 19); Peptide-72: +STHVLLTHTISRIAZ (SEQ ID NO: 20); Peptide-77: +LTHTISRIAVSYQTZ (SEQ ID NO: 21); Peptide-94: +LLSAIKSPCQRETPZ (SEQ ID NO: 22); Peptide-95: +LSAIKSPCQRETPEZ (SEQ ID NO: 23); Peptide-99: +KSPCQRETPEGAEAZ (SEQ ID NO: 24); Peptide-126: +QLEKGDRLSAEINRZ (SEQ ID NO: 25); Peptide-129: +KGDRLSAEINRPDYZ (SEQ ID NO: 26). The y-axis is in arbitrary units.
FIG. 14: Result of the loop-loop 15-mer Matrix-scan with mAb 210 (10 ug/m) with details of squares 65 and 127. Combination of loop-peptide 65 with loop-peptides 94, 95, combinations of loop-peptide 65 with 126-127, combinations of loop-peptide 127 with loop-peptides 65-77 and combinations of loop-peptide 127 with loop-peptides 94-96 are labeled. The y-axis is in arbitrary units.
The monoclonal antibody mAb-210 raised against hTNF was tested on linear and loop peptides (mAb-210 was bought from R&D Systems, MAB210, clone 1825.12, through ITK Diagnostics Uithoorn, The Netherlands). Firstly, it was tested in Pepscan on all overlapping linear 12-mers covering hTNF. […] Secondly, it was tested in Pepscan matrix-scan on double 15-mer loop-loop peptides (as described in FIGS. 3 and 4 and explained through FIGS. 11-12). Two loop-regions were labeled: peptide sequence GQGCPSTHVLLT (SEQ ID NO: 65) (squares 65 to 67) and SAIKSPCQRE (SEQ ID NO: 28) (squares 92 to 96) (FIGS. 13, 14). In addition in various squares loop peptide spots were identified corresponding to sequence GQGCPSTHVLLT (SEQ ID NO: 65) (spots 65-67); SAIKSPCQRE (SEQ ID NO: 28) (spots 92-96) and KGDRLSAEINR (SEQ ID NO: 29) (spots 126-129) (FIG. 14). These three regions, illustrated in FIG. 15 on the three-dimensional model of hTNF, are located on one side of the hTNF molecule and form one large discontinuous epitope region.

| Substance | labeling of squares (firstly coupled loop-peptides) | labeling of spots (first peptide coupled next to second loop peptide) |
| --- | --- | --- |
| +GQGCPSTHVLLTHTZ ({code +}-GQGCPSTHVLLTHTX; not fully specified (residue 15); printed as +GQGCPSTHVLLTHTZ; also: N- and C-terminal linker/cyclisation residues) [Sq-67, 15-mer hTNF loop-peptide] | clearly labeled | – |
| GQGCPSTHVLLT (Human) | labeled | identified |
| +SYQTKVNLLSAIKSZ ({code +}-SYQTKVNLLSAIKSX; not fully specified (residue 15); printed as +SYQTKVNLLSAIKSZ; also: N- and C-terminal linker/cyclisation residues) [Sq-87, 15-mer hTNF loop-peptide] | Identified | – |
| +STHVLLTHTISRIAZ ({code +}-STHVLLTHTISRIAC(nBu)) [Peptide-72, 15-mer hTNF loop-peptide] | – | Identified |
| +KSPCQRETPEGAEAZ ({code +}-KSPCQRETPEGAEAX; not fully specified (residue 15); printed as +KSPCQRETPEGAEAZ; also: N- and C-terminal linker/cyclisation residues) [Peptide-99, 15-mer hTNF loop-peptide] | – | Identified |
| GQGCPSTHVLLTHTIS (Human) | – | identified |
| +LEKGDRLSAEINRPZ ({code +}-LEKGDRLSAEINRPX; not fully specified (residue 15); printed as +LEKGDRLSAEINRPZ; also: N- and C-terminal linker/cyclisation residues) [Sq-127, 15-mer hTNF loop-peptide] | Identified | – |
| +EKGDRLSAEINRPDZ ({code +}-EKGDRLSAEINRPDX; not fully specified (residue 15); printed as +EKGDRLSAEINRPDZ; also: N- and C-terminal linker/cyclisation residues) [Sq-128, 15-mer hTNF loop-peptide] | Identified | – |
| +LLSAIKSPCQRETPZ ({code +}-LLSAIKSPCQRETPC(nBu)) [Peptide-94, 15-mer hTNF loop-peptide] | Identified | Identified |
| +LTHTISRIAVSYQTZ ({code +}-LTHTISRIAVSYQTX; not fully specified (residue 15); printed as +LTHTISRIAVSYQTZ; also: N- and C-terminal linker/cyclisation residues) [Peptide-77, 15-mer hTNF loop-peptide] | – | Identified |
| +KGDRLSAEINRPDYZ ({code +}-KGDRLSAEINRPDYC(nBu)) [Peptide-129, 15-mer hTNF loop-peptide] | – | Identified |
| +FKGQGCPSTHVLLTZ ({code +}-FKGQGCPSTHVLLTC(nBu)) [Peptide-65, 15-mer hTNF loop-peptide] | Identified | Identified |
| SAIKSPCQRE (Human) | labeled | identified |
| KGDRLSAEINR (Human) | – | identified |
| +KGQGCPSTHVLLTHZ ({code +}-KGQGCPSTHVLLTHX; not fully specified (residue 15); printed as +KGQGCPSTHVLLTHZ; also: N- and C-terminal linker/cyclisation residues) [Sq-66, 15-mer hTNF loop-peptide] | clearly labeled | – |
| +CPSTHVLLTHTISRZ ({code +}-CPSTHVLLTHTISRC(nBu)) [Peptide-70, 15-mer hTNF loop-peptide] | – | Identified |
| +YQTKVNLLSAIKSPZ ({code +}-YQTKVNLLSAIKSPX; not fully specified (residue 15); printed as +YQTKVNLLSAIKSPZ; also: N- and C-terminal linker/cyclisation residues) [Sq-88, 15-mer hTNF loop-peptide] | Identified | – |
| +LSAIKSPCQRETPEZ ({code +}-LSAIKSPCQRETPEC(nBu)) [Peptide-95, 15-mer hTNF loop-peptide] | Identified | Identified |
| +QLEKGDRLSAEINRZ ({code +}-QLEKGDRLSAEINRC(nBu)) [Peptide-126, 15-mer hTNF loop-peptide] | – | Identified |
